Like-named read-outs stand apart in the source and are kept apart here.
Tests used:
[1] = system: Tau-mCherry (Tau 441 isoform) on stabilized MTs from porcine brain tubulin; experiment: Tau-mCherry binding to stabilized MTs (TIRF); assay type: biochemical; conditions: for initial Tau envelope coverage / Tau envelope growth velocity: 10 nM Tau-mCherry; for initial Tau envelope coverage: MTs polymerized in the presence of drug; for Tau-mCherry coating of stabilized MTs / Tau envelope coverage of MT length: 40 nM Tau-mCherry
Text: Previous studies in vitro have shown that Tau molecules strongly prefer compacted GDP lattices. Tau binds cooperatively to MT surfaces, resulting in a cohesive layer depending on tau-tau interactions, termed MT envelope, which selectively regulates access to MT lattices, and shields MTs from severing enzymes. − On expanded PTX-MTs, Tau envelope also forms and the lattice can get locally compacted. To further explore how MT lattice structure influences Tau binding, we employed an in vitro reconstitution assay. We deposited stabilized MTs in a flow chamber, and visualized them via interference reflection microscopy (Figure C). We then added 10 nM Tau-mCherry (labeled purified Tau 441 isoform at the C-terminus with mCherry) and monitored its association with MTs using time-lapse TIRF microscopy. After 4 min, we increased Tau concentration to 40 nM, and continued imaging for an additional 4 min. We measured fluorescence intensities along MTs to quantify Tau binding (Movies S16–S27). […] PTXpost-MTs also supported […] faster envelope growth (0.20 ± 0.02 μm/s versus 0.054 ± 0.006 μm/s for PTXpre-MTs, Figure H).
Total Internal Reflection Fluorescence microscopy experiments were performed on an inverted widefield microscope Nikon-Ti2 E, equipped with a motorized XY-stage, a perfect focus system, Apo TIRF 60× oil NA 1.49 objective and PRIME BSY (Teledyne Photometrics) camera. MTs were visualized using Interference Reflection microscopy (IRM) and fluorescently labeled proteins were visualized sequentially by switching between microscope filter cubes for GFP and mCherry channels. The microscopes were controlled using NIS Elements software (Nikon). All experiments were conducted at RT.
Microscopy chambers were prepared from two sandwiched silanized glass coverslips (22 × 22 mm^2 and 18 × 18 mm^2) attached through parafilm strips (heated for 15–20 s at 60 °C and gently pressed together) to form ∼2.5 mm wide parallel flow channels. Prior to the chamber assembly, the coverslips were washed in 3 M KOH, cleaned using Zepto plasma cleaner (Diener electronic) and silanized with hexamethyldisilazane. Flow channels were first incubated with 40 μgml^–1 antibiotin antibodies (Sigma, B3640) in PBS for 10 min, followed by incubation with 1% Pluronic F127 (Sigma-Aldrich, P2443) in PBS for at least 1 h. F127 was washed with BRB80 (80 mM PIPES, 1 mM EGTA, 1 mM MgCl2, pH 6.9).
Porcine brain tubulin was isolated using the high-molarity PIPES procedure then mixed with Biotin labeled tubulin (Cytoskeleton Inc., T333P) in 1:49 ratio. All MTs were polymerized using 2% biotin-labeled tubulin. […] Polymerized MTs were centrifuged for 30 min at 18,000g in a Microfuge 18 Centrifuge (Beckman Coulter’s). […] Drug stabilized preassembly MTs (polymerized in the presence of drugs and GTP, stored and imaged in presence of drug) were polymerized from 4 mg mL^–1 biotinylated tubulin for 30 min at 37 °C in BRB80 supplemented with 4 mM MgCl2, 40 μM drug of interest in 5% DMSO, and 1 mM GTP. Polymerized MTs were centrifuged for 30 min at 18,000g in a Microfuge 18 Centrifuge (Beckman Coulter’s). […] GMPCPP stabilized MTs (GMPCPP polymerized) were assembled from 4 mg mL^–1 biotinylated tubulin for 2 h at 37 °C in BRB80 supplemented with 1 mM MgCl2 and 1 mM GMPCPP (Jena Bioscience, NU-405). Polymerized MTs were centrifuged for 30 min at 18,000g in a Microfuge 18 Centrifuge (Beckman Coulter’s) and pellets were resuspended and kept in BRB80.
Stabilized MTs were flushed into the channel and incubated for 15–30 s to allow for surface attachment. Unbound MTs were removed by washing with BRB80 supplemented with 10 μM of drug. Prior the experiment, the solution was exchanged by motility buffer, MB (BRB80 containing 10 mM DTT, 20 mM D-glucose, 0.1% Tween-20, 0.5 mg/mL casein, 1 mM Mg-ATP, 0.02 mg/mL catalase, 0.22 mg/mL glucose oxidase, 10 μM drug). Subsequently, a solution containing either 1.08 nM Kif5b-EGFP or 10/40 nM mCherry-Tau in MB was introduced into the chamber. […]

HeLa cells = experiment: MTT cytotoxicity assay, HeLa; assay type: cell-based; conditions: Homo sapiens, 48 h, read-out: Cytotoxicity IC50 HeLa
Procedure: Antiproliferative assays were performed as described. […] Then, increasing concentrations of drugs were added and incubated for 48 h prior to the reaction with the MTT solution. IC50 values were obtained by fitting the experimental data (absorbance at 570/690 nm) to a four-parameter logistic curve using SigmaPlot 14.5 software package (Systat Software, Inc., San Jose, CA, USA) and IC50 values were expressed as mean ± SEM from three independent experiments, each performed in duplicate.

tubulin = experiment: Tubulin polymerization time course (absorbance 350 nm); assay type: biochemical, calf; conditions: 25 μM tubulin in PEDTA buffer, 35 μM compound, 37 °C
Procedure: Purified calf brain tubulin and chemicals were obtained as previously described. Tau-mCherry was expressed and purified as described previously. Human Kif5B-EGFP (amino acids 1-905), containing a C terminal fluorescent-tag followed by a 3C protease cleavage site and a 6 × His-tag was expressed and purified as in with some modifications. Prior to purification, cells were resuspended in 1:1 ratio of lysis buffer (30 mM HEPES pH 7.5, 300 mM NaCl, 0.5 mM ATP, 5% glycerol, 20 mM imidazole, […]) supplemented with 1× Protease inhibitor cocktail and benzonase to the final concentration of 25 units/ml. Cells were homogenized by repeated pipetting. Cells were lysed by spinning for 45 min at 40,000 rpm in 45 Ti fixed-angle rotor (Beckman Coulter) at 4 °C. The supernatant was incubated with pre-equilibrated HisPUR NiNTA agarose resin (Thermo Fisher Scientific) for 1 h in a tightly closed gravity-flow column (Thermo Fisher Scientific) at 4 °C by slowly rotating. Subsequently, the resin was washed once lysis buffer and then with buffer B (30 mM HEPES pH 7.5, 300 mM NaCl, 0.5 mM ATP, 5% glycerol, 30 mM imidazole, […]). The protein was eluted from the resin after an overnight cleavage of the 6 × His-tag with 3C HRV protease in lysis buffer at 4 °C. The eluted protein was further purified via size exclusion chromatography on Superdex 200 10/300 GL column equilibrated in exclusion buffer (30 mM HEPES pH 7.5, 300 mM NaCl, 0.5 mM ATP, 5% glycerol, […]). Peak fractions were analyzed via SDS-PAGE, pooled and the protein was concentrated with Amicon Ultra-15 Centrifugal Filter tubes (Millipore). Purified proteins were aliquoted, snap-frozen in liquid N2, and stored at −80 °C.
Tubulin polymerization assays were performed in PEDTA (10 mM NaPi, 1 mM EDTA, 0.1 mM GTP pH 7.0) or GAB (10 mM NaPi, 3.4 M glycerol, 1 mM EGTA, 0.1 mM GTP pH 6.7) buffers supplemented with 0.9 mM GTP and 4 mM MgCl2.

[2] = MTs polymerized in the presence of drug (preassembly)
[3] = MTs stabilized with PTX after polymerization (PTXpost)

| SMILES | initial Tau envelope coverage [1] [%] | Tau envelope growth velocity [1, 2] [μm/s] | Tau-mCherry coating of stabilized MTs [1] | IC50 (HeLa cells) [nM] | Polymerization v max (tubulin) | IC50 (HeLa cells; MTT, mean ± SEM) [nM] | Tau envelope growth velocity [1, 3] [μm/s] | Tau envelope coverage of MT length ([1]; MTs assembled in the presence of PTX (PTXpre)) [%] | Tau envelope coverage of MT length [1, 3] |
| --- | --- | --- | --- | --- | --- | --- | --- | --- | --- |
| CC(=O)OC1C(=O)C2(C)C(OC(=O)CCCCC(=O)OC3CCc4ccccc43)CC3OCC3(OC(C)=O)C2C(OC(=O)c2ccccc2)C2(O)CC(OC(=O)C(O)C(NC(=O)c3ccccc3)c3ccccc3)C(C)=C1C2(C)C (stereo not shown) [1a, 7-O-(6″-O-(2‴,3‴-Dihydroinden-1‴-yl)hexanedioyl) Paclitaxel] | 40 | 1.5 ± 0.1 | fully coated | 180 ± 20 | 1.19 × 10^–3 min^–1 |  |  |  |  |
| COc1ccc2c(c1)CC(NC(=O)CCCCCCCC(=O)OC1CC3OCC3(OC(C)=O)C3C(OC(=O)c4ccccc4)C4(O)CC(OC(=O)C(O)C(NC(=O)c5ccccc5)c5ccccc5)C(C)=C(C(OC(C)=O)C(=O)C13C)C4(C)C)CC2 [1b, 7-O-((S)-9″-(7‴-Methoxy-1‴,2‴,3‴,4‴-tetrahydronaphthalen-2‴-yl)amino) −9″-oxononanoyl) Paclitaxel] | 20 | 0.46 ± 0.05 | fully coated |  | 1.44 × 10^–4 min^–1 | 100 ± 20 |  |  |  |
| CC(=O)O[C@H]1C(=O)[C@]2(C)[C@@H](OC(=O)[C@H](C)NC(=O)c3ccc(-c4c5cc(F)c(=O)cc-5oc5cc(O)c(F)cc45)c(C(=O)O)c3)C[C@H]3OC[C@@]3(OC(C)=O)[C@H]2[C@H](OC(=O)c2ccccc2)[C@]2(O)C[C@H](OC(=O)[C@H](O)[C@@H](NC(=O)c3ccccc3)c3ccccc3)C(C)=C1C2(C)C [FTX2, Flutax2] | 60 | 1.37 ± 0.09 | fully coated |  | 1.42 × 10^–3 min^–1 |  |  |  |  |
| CC(=O)O[C@H]1C(=O)[C@@]2(C)[C@H]([C@H](OC(=O)c3ccccc3)[C@]3(O)C[C@H](OC(=O)[C@H](O)[C@@H](NC(=O)c4ccccc4)c4ccccc4)C(C)=C1C3(C)C)[C@]1(OC(C)=O)CO[C@@H]1C[C@@H]2O [PTX, Paclitaxel] |  | 0.054 ± 0.006 |  |  | 1.25 × 10^–2 min^–1 |  | 0.20 ± 0.02 | 30 | up to 60% |

From publication PMC13492380, “Dissecting Structural and Functional Determinants of Microtubules Stabilization through Guided Chemical Modulation” (Journal of Medicinal Chemistry, 2026)
